Data on eight compounds can be found in patent US4221919A, “Antiinflammatory substituted phenylacetic acids” (SPOFA, United Pharmaceutical Works, priority 1974, dated 1980).

SMILES strings stand for the structures. Read-outs that look alike come from different tables or passages of the source.

Data set [1] is described as follows: orientative test for oral acute toxicity in female mice. Conditions: mouse, in vivo. The method, then: (§1) As experimental models of inflammation, serving for testing the antiinflammatory activity, there were used the method of kaolin-induced edema of rat hind limb (Hillebrecht J.: Arzneim-Forsch. 9, p. 625, 1959). Kaolin edema of rat hind limb was induced by subplantar injection of 10% kaolin suspension dosed 0.1 ml per animal. The substances tested were administered once, one hour before the injection of kaolin, by gavage with the aid of a metallic gastric sound in the form of aqueous suspension with gum acacia added, in volumes of 1 ml/100 g body weight, equivalent to doses of 25 and 100 mg/kg. The edema of the right hind limb was measured volumetrically on a Volumometer Ugo Basile at hours 1; 1.5; 3; 4.5 and 6 after injection of kaolin. Statistical evaluation was always made in comparison with an untreated control group, and the efficacy of each compound was expressed in percent inhibition of inflammation. Experimental animals: female rats, Wistar strain, Konarovice breed, weighing 130-150 g, experimental groups of 6 animals each. Pelleted diet and drinking water were served ad libitum. This phase of limb edema induced by injection of kaolin suspension represents an acute phase of inflammatory reaction. In addition, orientative tests for oral acute toxicity were carried out with the compounds tested in female mice, S strain, Konarovice breed, weighing 16-20 g. Each compound was administered once by gavage, dosed 1 g/kg, in the form of aqueous suspensions with gum acacia added. Experimental groups of 5 animals each were employed. The deaths were checked for 1 week after administration.

In data set [2] the test system is kaolin-induced edema of rat hind limb. Description: kaolin-induced edema of rat hind limb (antiinflammatory activity, gavage). Conditions: po, 1 h, by gavage, once, one hour before kaolin injection, vs untreated control group, footnotes mark + statistically significant, n not statistically significant. The data set is classed as in vivo, rat (Wistar strain, Konarovice breed, female). The method, then: as §1

Where [3] appears, read: oral (gavage), single dose 1 g/kg, deaths checked for 1 week, read-out: LD50 oral mice.

As to `CC(C)Oc1ccc(COc2ccc(C(C)C(=O)O)cc2Cl)cc1` (stereo not drawn) [α-[3-Chloro-4-(4'-isopropoxybenzyloxy)phenyl] propionic acid, reference compound], the LD50 at 168 h in data set [1] (setting [3]) is less than 1000 mg/kg.
Same read-out and setting: to `CC(C)Oc1ccc(COc2ccc(CC(=O)O)cc2Cl)cc1` [3-chloro-4-(4'-isopropoxybenzyloxy) phenylacetic acid] belongs less than 1000 mg/kg; to `COc1ccc(COc2ccc(C(C)C(=O)O)cc2Cl)cc1Cl` (stereo not drawn) [α-[3-Chloro-4-(3'-chloro-4'-methoxybenzyloxy)phenyl] propionic acid, reference compound], less than 1000 mg/kg.
As to `CC(C(=O)O)c1ccc(OCc2ccccc2)c(Cl)c1` (stereo not drawn) [α-(3-Chloro-4-benzyloxyphenyl)-propionic acid, reference compound], the inhibition in vivo at 25 mg/kg in data set [2] was found to be 14%. Moreover, in data set [1] (setting [3]), the LD50 at 168 h worked out at 1000 mg/kg.
For `O=C(O)Cc1ccc(OCc2ccccc2)c(Cl)c1` [3-Chloro-4-benzyloxyphenylacetic acid, 3-chloro-4-benzyloxyphenylacetic acid], in that order: 39% and greater than 1000 mg/kg.
For `COc1ccc(COc2ccc(CC(=O)O)cc2Cl)cc1Cl` [3-chloro-4-(3'-chloro-4'-methoxybenzyloxy) phenylacetic acid], in that order: 17% and greater than 1000 mg/kg.
Taken in the same sequence, the figures for `O=C(O)Cc1ccc(OCc2ccc(Cl)cc2)c(Cl)c1` [3-Chloro-4-(4'-chlorobenzyloxy) phenylacetic acid] were 28% and greater than 1000 mg/kg.
Regarding `CC(C(=O)O)c1ccc(OCc2ccc(Cl)cc2)c(Cl)c1` (stereo not drawn) [α-[3-Chloro-4-(4'-chlorobenzyloxy)-phenyl] propionic acid, reference compound], the inhibition in vivo at 25 mg/kg in data set [2] came out at 25%. In addition, the LD50 at 168 h in data set [1] (po) was greater than 1000 mg/kg.

The term LD50 denotes the dose expected to kill half of the subjects tested. Broadly, the inhibition in vivo is the relative decrease from the control value, in per cent.
